# In paper PMC10578352, “Identification of a Protein Arginine Methyltransferase 7 (PRMT7)/Protein Arginine Methyltransferase 9 (PRMT9) Inhibitor” (Journal of Medicinal Chemistry, 2023):
# Legend:
# GST-HsPRMT7 = target: T1, GST-HsPRMT7 (Homo sapiens, UniProt Q9NVM4); assay: Radioisotope-based assay (SDS-PAGE, fluorography, densitometry), HsPRMT7; type: biochemical; conditions: substrate HsH2B, 15 °C, read-out: % HsPRMT7 residual activity
# T1 construct: made in house; host or cells: E. coli
# T1 sequence (Q9NVM4 1-692): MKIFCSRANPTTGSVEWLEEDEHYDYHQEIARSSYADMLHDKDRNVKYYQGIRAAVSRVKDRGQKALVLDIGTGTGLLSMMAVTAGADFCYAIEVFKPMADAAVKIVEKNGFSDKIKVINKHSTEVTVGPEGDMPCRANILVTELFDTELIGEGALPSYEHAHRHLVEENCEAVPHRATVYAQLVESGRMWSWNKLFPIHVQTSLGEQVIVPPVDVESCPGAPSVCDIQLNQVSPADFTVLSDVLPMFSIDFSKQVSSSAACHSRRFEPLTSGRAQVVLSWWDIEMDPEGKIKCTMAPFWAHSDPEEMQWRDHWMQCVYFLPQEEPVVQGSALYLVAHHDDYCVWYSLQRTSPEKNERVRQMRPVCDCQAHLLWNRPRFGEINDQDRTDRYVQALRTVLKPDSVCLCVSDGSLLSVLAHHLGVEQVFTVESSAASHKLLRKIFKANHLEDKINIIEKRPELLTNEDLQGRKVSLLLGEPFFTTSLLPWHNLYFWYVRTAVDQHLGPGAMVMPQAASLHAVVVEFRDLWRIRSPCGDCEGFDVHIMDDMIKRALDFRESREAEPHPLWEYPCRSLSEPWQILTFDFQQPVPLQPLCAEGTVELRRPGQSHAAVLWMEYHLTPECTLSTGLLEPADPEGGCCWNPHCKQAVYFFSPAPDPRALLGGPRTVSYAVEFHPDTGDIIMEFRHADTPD
# Procedure: (§1) Based on these outcomes, we resolved to explore the effect on the capability to inhibit PRMT9 enzymatic activity of further reduction of the distance between the pharmacophoric moieties. […] After the experiment was repeated with 100, 250, and 500 μM concentrations of each inhibitor, half inhibition was observed only at a concentration of roughly 250 μM (Figure 4d).
# (§2) […]. The experiments were performed as reported in the Experimental procedures section. GST-HsPRMT9 (a) and GST-HsPRMT7 (b) were incubated with human GST-SF3B2 (401–550) peptide or recombinant HsH2B, respectively (1 μg of enzyme, 5 μg of substrate), 0.14 μM [^3H]SAM, and the indicated concentrations of tested compounds at the corresponding optimal reaction temperature (37 °C for HsPRMT9, 15 °C for HsPRMT7). C. elegans GST-tagged enzymes PRMT9 (c) and PRMT7 (d) were incubated with GST-CeSFTB-2 (99–248) fragment or recombinant HsH2B, respectively (1 μg of enzyme, 5 μg of substrate), 0.14 μM [^3H]SAM, and the indicated concentrations of tested compounds at the corresponding optimal reaction temperature (25 °C for CePRMT9, 15 °C for CePRMT7). After SDS-PAGE, the gels were treated as previously described[48] and densitometry analysis was done using ImageJ software, and data was plotted as normalized activity to the no inhibitor controls.
# (§3) Human PRMT9, C. elegans PRMT9, human PRMT7, and C. elegans PRMT7 plasmids were sequenced, expressed in E. coli as GST-fusion proteins, and purified as previously described.[48] Substrates were also sequenced and purified as described [human GST-SF3B2 (401–550);[13]C. elegans SFTB-2;[48] human histone H2B (New England Biolabs, M2505S)]. Xenopus laevis histone H2B was expressed in E. coli and purified similarly to what was previously reported by Luger et al.[72]
# (§4) Reactions consisting of approximately 1 μg of enzyme (human or C. elegans GST-tagged enzymes PRMT9 and PRMT7), reacted with approximately 5 μg of substrate [for human PRMT9, human GST-SF3B2 401–550 fragment; C. elegans PRMT9 with C. elegans GST-SFTB-2 (99–248) fragment, or recombinant human histone H2B from New England Biolabs (M2505S)], were incubated for the indicated time in reaction buffer {50 mM potassium HEPES buffer, 10 mM NaCl, 1 mM dithiothreitol (DTT), pH 8.0 with 0.7 μM S-adenosyl-L-[methyl-^3H]methionine (^3H-AdoMet, PerkinElmer Life Sciences, 82.7 Ci/mmol, 0.55 mCi/mL in 10 mM H2SO4/EtOH [9:1 (v/v)])} in a final reaction volume of 60 μL. Each reaction was incubated at the corresponding optimal reaction temperature (37 °C for human PRMT9, 25 °C for C. elegans PRMT9, and 15 °C for C. elegans and human PRMT7 enzymes. MTA was dissolved in water, and a wavelength scan was taken to determine the final concentration using the extinction coefficient. The final concentrations used are indicated in the figure legends. […]. EML734, EML736, and EML709 were also dissolved in DMSO, and further dilutions were made in DMSO for the working stocks. For controls, no inhibitor reactions were created by the addition of the respective solvent (water for MTA and DMSO for EPZ015666 and EML inhibitors).
# After the reaction incubations with the various concentrations of inhibitors, the reactions were quenched by adding 0.2 volume of 5× SDS sample loading buffer, and subsequently, the reactions were run on a 12.6% polyacrylamide Tris gel. To collect the radioactive signal, the gels were then treated in the same way as previously described.[48] […]
# CePRMT9 = assay: Radioisotope-based assay (SDS-PAGE, fluorography, densitometry), CePRMT9; type: biochemical, Caenorhabditis elegans; conditions: substrate GST-CeSFTB-2 (99–248), 25 °C
# Procedure: as §1, §2, §3, §4
# After the reaction incubations with the various concentrations of inhibitors, the reactions were quenched by adding 0.2 volume of 5× SDS sample loading buffer, and subsequently, the reactions were run on a 12.6% polyacrylamide Tris gel. To collect the radioactive signal, the gels were then treated in the same way as previously described.[48]
# After various exposures were collected to ensure linear detection, densitometry analysis was done using ImageJ software, and data were plotted as normalized activity to the no inhibitor controls.
remaining activity at 100 µM (GST-HsPRMT7),Structure (SMILES),% CePRMT9 residual activity (CePRMT9; 5 uM),% CePRMT9 residual activity (CePRMT9; 25 uM),% CePRMT9 residual activity (CePRMT9; 50 uM),% CePRMT9 residual activity (CePRMT9; 100 uM)
0.5%,COC(=O)c1cc(O)c2cc(NC(=O)NCCCNC(=N)NC[C@H]3O[C@@H](n4cnc5c(N)ncnc54)[C@H](O)[C@@H]3O)ccc2c1 [1a],106.32%,67.30%,31.52%,19.47%
0.03%,COC(=O)c1cc(O)c2cc(NC(=O)NCCCCCNC(=N)NC[C@H]3O[C@@H](n4cnc5c(N)ncnc54)[C@H](O)[C@@H]3O)ccc2c1 [1c],110.89%,81.62%,50.08%,12.31%
8.27%,COC(=O)c1cc(O)c2cc(NC(=O)NCCCCNC(=N)NC[C@H]3O[C@@H](n4cnc5c(N)ncnc54)[C@H](O)[C@@H]3O)ccc2c1 [1b],114.11%,95.80%,52.55%,39.17%
